Data taken from patent US20260053861A1, “CELL COMPOSITIONS AND METHODS OF USING THE SAME” (THE REGENTS OF THE UNIVERSITY OF CALIFORNIA, priority 2022, published 2026).
Counter-ions that a name gives are not always drawn. Like-named read-outs stand apart in the source and are kept apart here.

System: hPSC-SCs
[1] = HTS viability of hPSC-SCs in the presence of 30 mM glucose, Prestwick library, Table S4

| Compound | z.score.t [1] | z.score.t |
| --- | --- | --- |
| C[C@H](CCC(=O)O)[C@H]1CC[C@H]2[C@@H]3[C@@H](O)C[C@@H]4C[C@H](O)CC[C@]4(C)[C@H]3CC[C@]12C [Urosiol] | −0.6988 |  |
| O=C(O)CCNC(=O)c1ccc(/N=N/c2ccc(O)c(C(=O)O)c2)cc1 [Balsalazide Sodium] | 0.7914 |  |
| COC(=O)C1=CO[C@@H](C)[C@H]2CN3CCc4c([nH]c5ccccc45)[C@@H]3C[C@H]12.Cl [Ajmalicine hydrochloride] | −0.6111 |  |
| CC1(C)S[C@@H]2[C@H](NC(=O)[C@H](C(=O)O)c3ccsc3)C(=O)N2[C@H]1C(=O)O [Ticarcillin sodium] | −0.6389 |  |
| Cc1cccc(Nc2ccncc2S(=O)(=O)NC(=O)NC(C)C)c1 [Torsemide] | 0.2395 |  |
| CC[N+](CC)(CC)CCC(O)(c1ccccc1)C1CCCCC1.[Cl-] (centres unmarked) [Tridihexethyl chloride] | −1.558 |  |
| NC(=O)c1ccc[n+]([C@@H]2O[C@H](COP(=O)([O-])OP(=O)(O)OC[C@H]3O[C@@H](n4cnc5c(N)ncnc54)[C@H](O)[C@@H]3O)[C@@H](O)[C@H]2O)c1 [Nadide] | 0.453 |  |
| C[C@]12CC[C@@H](O)C[C@@H]1CC[C@@H]1[C@@H]2CC[C@]2(C)C(=O)CC[C@@H]12 [Androsterone] |  | −1.265 |
| CC(C)(C)NC(=O)[C@H]1CC[C@H]2[C@@H]3CC[C@H]4NC(=O)C=C[C@]4(C)[C@H]3CC[C@]12C [Finasteride] | −0.9741 |  |
| C[C@]12CC[C@H]3[C@@H](CCC4=CC(=O)CC[C@@]43C)[C@@H]1CC[C@@H]2C(=O)CO [Deoxycorticosterone] |  | −1.303 |
| COC(=O)C1=C(C)NC(C)=C(C(=O)OCCN(C)Cc2ccccc2)C1c1cccc([N+](=O)[O-])c1 (centres unmarked) [Nicardipine hydrochloride] | 0.2189 |  |
| CC(C)(Oc1ccc(CCNC(=O)c2ccc(Cl)cc2)cc1)C(=O)O [Bezafibrate] | 1.266 |  |
| CCOC(=O)[C@H](CCc1ccccc1)N[C@@H](C)C(=O)N1CCC[C@H]1C(=O)O [Enalapril maleate] | −0.8991 |  |
| CCOc1ccc2ccccc2c1C(=O)N[C@@H]1C(=O)N2[C@@H]1SC(C)(C)[C@@H]2C(=O)O [Nafcillin sodium salt monohydrate] | 1.323 |  |
| CC1=CC(=O)C2=C(C)CC[C@@H]3[C@H](OC(=O)[C@H]3C)[C@@H]12 [Leucomisine] |  | 1.214 |
| COC(=O)[C@H]1[C@H]2C[C@@H]3c4[nH]c5cc(OC)ccc5c4CCN3C[C@H]2C[C@@H](OC(=O)/C=C/c2cc(OC)c(OC)c(OC)c2)[C@@H]1OC [Rescinnamin] | 0.006455 |  |
| C=CCOc1ccccc1OCC(O)CNC(C)C (centres unmarked) [Oxprenolol hydrochloride] | −1.046 |  |
| N=C(N)c1ccc(OCCCCCOc2ccc(C(=N)N)cc2)cc1 [Pentamidine isethionate] | −0.8129 |  |
| CC(C)(C)NC[C@H](O)COc1cccc2c1CCCC2=O.Cl [(−) -Levobunolol hydrochloride] | 0.8283 |  |
| NCC[C@H](O)C(=O)N[C@@H]1C[C@H](N)[C@@H](O[C@H]2O[C@H](CN)[C@@H](O)[C@H](O)[C@H]2O)[C@H](O)[C@H]1O[C@H]1O[C@H](CO)[C@@H](O)[C@H](N)[C@H]1O [Amikacin hydrate] | −0.4543 |  |
| Clofilium tosylate | −0.6227 |  |
| CN1[C@@H]2CC[C@H]1C[C@@H](O)C2 [Tropine] |  | −0.6133 |
| Cc1ccc(S(=O)(=O)NC(=O)NN2CC3CCCC3C2)cc1 (centres unmarked) [Gliclazide] | −0.03629 |  |
| CN(C(=O)CN(CCO)CC(=O)N(C)C(C)(C)Cc1ccccc1)C(C)(C)Cc1ccccc1 [Oxethazaine] | −1.253 |  |
| Cc1cc(N)c2ccccc2[n+]1CCCCCCCCCC[n+]1c(C)cc(N)c2ccccc21 [Dequalinium dichloride] | 0.5046 |  |
| O=c1n(CCCN2CCN(c3cccc(Cl)c3)CC2)nc2ccccn12 [Trazodone hydrochloride] | 0.4346 |  |

| Compound | z.score.t [1] | z.score.t |
| --- | --- | --- |
| O=C1NCCN1c1ncc([N+](=O)[O-])s1 [Niridazole] | 2.422 |  |
| CC(C)(C(=O)O)c1ccc(C(O)CCCN2CCC(C(O)(c3ccccc3)c3ccccc3)CC2)cc1 (centres unmarked) [Fexofenadine HCl] | −0.5086 |  |
| CCOC(=O)[N-]c1cn(N2CCOCC2)n[o+]1 [Molsidomine] | 0.713 |  |
| Clc1ccc(COC(Cn2ccnc2)c2ccc(Cl)cc2Cl)c(Cl)c1 (centres unmarked) [Miconazole] | −1.873 |  |
| CC(=O)O[C@H]1C(=O)[C@@]2(C)[C@H]([C@H](OC(=O)c3ccccc3)[C@]3(O)C[C@H](OC(=O)[C@H](O)[C@@H](NC(=O)c4ccccc4)c4ccccc4)C(C)=C1C3(C)C)[C@]1(OC(C)=O)CO[C@@H]1C[C@@H]2O [Paclitaxel] | −1.418 |  |
| C[C@](N)(Cc1ccc(O)c(O)c1)C(=O)O [Methyldopa (L, −)] | 0.006455 |  |
| C[C@H](CCC(=O)O)[C@H]1CC[C@H]2[C@@H]3C(=O)C[C@@H]4CC(=O)CC[C@]4(C)[C@H]3CC(=O)[C@]12C [Dehydrocholic acid] | 1.472 |  |
| Nc1nc(N)c2nc(-c3ccccc3)c(N)nc2n1 [Triamterene] | 0.4903 |  |
| COc1ccc(-c2cc(=O)c3c(O)cc(O)cc3o2)cc1 [Acacetin] | −0.03362 |  |
| CN(C)CCC=C1c2ccccc2COc2ccccc21 [Doxepin hydrochloride] | 0.1594 |  |
| CC(C)NCC(O)c1cc(O)cc(O)c1.CC(C)NCC(O)c1cc(O)cc(O)c1.O=S(=O)(O)O (centres unmarked) | 0.4451 |  |
| CC(=O)N(CC(O)CO)c1c(I)c(C(=O)NCC(O)CO)c(I)c(C(=O)NCC(O)CO)c1I (centres unmarked) [Iohexol] | −0.07901 |  |
| CC(CCc1ccccc1)NCC(O)c1ccc(O)c(C(N)=O)c1 (centres unmarked) [Labetalol hydrochloride] | 0.7665 |  |
| C[C@]12C[C@H]3S[C@H]3C[C@@H]1CC[C@@H]1[C@@H]2CC[C@]2(C)[C@@H](O)CC[C@@H]12 [Epitiostanol] |  | 0.1686 |
| N[C@@H](C(=O)N[C@@H]1C(=O)N2C(C(=O)O)=C(Cl)CS[C@H]12)c1ccccc1 [Cefaclor] | −0.7233 |  |
| C[C@]1(OC(=O)/C=C/c2ccccc2)C[C@@H](O)[C@]2(O)C=CO[C@@H](O[C@@H]3O[C@H](CO)[C@@H](O)[C@H](O)[C@H]3O)[C@@H]21 [Harpagoside] | −0.8347 |  |
| Nc1ccc(S(=O)(=O)Nc2ncccn2)cc1 [Sulfadiazine] | 0.5856 |  |
| CCCN(CCC)C(=O)C(CCC(=O)O)NC(=O)c1ccccc1 (centres unmarked) [Proglumide] | −0.8991 |  |
| O=C(NCCNCC(O)COc1ccc(O)cc1)N1CCOCC1 (centres unmarked) [Xamoterol hemifumarate] | 0.81 |  |
| Dihydroergotamine tartrate |  | −0.5417 |
| C[C@@]12C(=O)OC(=O)[C@]1(C)[C@H]1CC[C@@H]2O1 [Cantharidin] |  | −2.175 |
| C=C[C@H]1C[N@@]2CC[C@H]1C[C@@H]2[C@@H](O)c1ccnc2ccccc12 [Cinchonine] | 1.252 |  |
| Vitamin K2 | −0.4141 |  |
| Cl.NCC(O)c1ccc(O)cc1 (racemic) [(+, −)-Octopamine hydrochloride] |  | 0.6574 |
| COc1cc2c(cc1OC)C(C)NCC2.Cl (centres unmarked) |  | 0.3024 |
| CC(C)N(CCC(C(N)=O)(c1ccccc1)c1ccccn1)C(C)C (centres unmarked) [Disopyramide] | 0.4205 |  |

| Compound | z.score.t [1] | z.score.t |
| --- | --- | --- |
| CN1CCC(=C2c3ccccc3C=Cc3ccccc32)CC1 [Cyproheptadine hydrochloride] | 0.4486 |  |
| COCCCC/C(=N\OCCN)c1ccc(C(F)(F)F)cc1 [Fluvoxamine maleate] | 0.03957 |  |
| CCCC1C(=O)N2C(N(C)C)=Nc3ccc(C)cc3N2C1=O (centres unmarked) [Azapropazone] | 1.176 |  |
| COc1c2occc2c(OC)c2c(=O)cc(C)oc12 [Khellin] | 0.7913 |  |
| CCC(Cc1c(I)cc(I)c(N)c1I)C(=O)O (centres unmarked) [Iopanoic acid] | 1.279 |  |
| C[N+](C)(C)CCOC(N)=O [Carbachol] | −0.1239 |  |
| COc1ccc(CN2CCNCC2)c(OC)c1OC [Trimetazidine dihydrochloride] | 0.2189 |  |
| CCCCOc1ccc(CC(=O)NO)cc1 [Bufexamac] | −0.6623 |  |
| Nc1ccc(S(=O)(=O)Nc2ccccn2)cc1 [Sulfapyridine] | 1.853 |  |
| CC(COc1ccccc1)N(CCCl)Cc1ccccc1 (centres unmarked) [Phenoxybenzamine hydrochloride] |  | 0.03421 |
| COc1ccc(C[C@H]2NC[C@H](O)[C@H]2OC(C)=O)cc1 [Anisomycin] |  | −2.056 |
| O=C(/C=C/C=C/c1ccc2c(c1)OCO2)N1CCCCC1 [Piperine] | −0.1003 |  |
| Cc1nnc(SCC2=C(C(=O)O)N3C(=O)[C@@H](NC(=O)Cn4cnnn4)[C@H]3SC2)s1 [Cefazolin sodium salt] | −0.6194 |  |
| CNCC(O)c1ccc(OC(=O)C(C)(C)C)c(OC(=O)C(C)(C)C)c1 (centres unmarked) [Dipivefrin hydrochloride] | −1.319 |  |
| COc1cc2nc(N3CCN(C(=O)c4ccco4)CC3)nc(N)c2cc1OC [Prazosin hydrochloride] | −0.496 |  |
| CC1=C(C(=O)O)N2C(=O)[C@@H](NC(=O)[C@H](N)c3ccc(O)cc3)[C@H]2SC1 [Cefadroxil] | 0.5046 |  |
| CC(NCCc1ccc(O)cc1)C(O)c1ccc(O)cc1 (centres unmarked) [Ritodrine hydrochloride] | 0.5046 |  |
| C[C@]12CCC(=O)C=C1C=C[C@@H]1[C@@H]2CC[C@@]2(C)[C@H]1CC[C@@]2(O)CCC(=O)O [Canrenoic acid potassium salt] | 0.05523 |  |
| CC1(C)S[C@@H]2[C@H](NC(=O)Cc3ccccc3)C(=O)N2[C@H]1C(=O)O [Benzylpenicillin sodium] | −1.3 |  |
| C#C[C@]1(O)CC[C@H]2[C@@H]3CCC4=Cc5oncc5C[C@]4(C)[C@H]3CC[C@@]21C [Danazol] | 0.1149 |  |
| NC12CC3CC(CC(C3)C1)C2.NC12CC3CC(CC(C3)C1)C2.O=C(O)/C=C/C(=O)O [Adamantamine fumarate] | −0.4942 |  |
| CCC1(C)CC(=O)NC(=O)C1 [Bemegride] |  | 0.3241 |
| CC(=O)Nc1nnc(S(N)(=O)=O)s1 [Acetazolamide] | 0.8639 |  |
| CC(C)NC[C@@H](O)COc1ccc(CC(N)=O)cc1 [(R)-(+)-Atenolol] | −0.9395 |  |
| C[C@@]1(O)CCOC(=O)C1 [Mevalonic-D, L acid lactone] | 0.2361 |  |
